# Measured values from patent publication US4820694A, “Modifications of 3-O-demethylmycinose in macrocin and lactenocin” (priority 1986, dated 1989).
# Like-named read-outs stand apart in the source and are kept apart here.
# Experiments:
# [1] = system: Klebsiella pneumoniae X68; assay: standard agar-dilution MIC assay; type: cell-based; settings: agar-dilution
# Method: (§1) The MIC's in Table III were determined by standard agar-dilution assays. The MIC's in Table IV were obtained using conventional brothdilution microtiter tests.
# [2] = system: Streptococcus Group D 9960; assay: standard agar-dilution MIC assay; type: cell-based
# Method: as §1
# [3] = system: Staphylococcus aureus X400; assay: standard agar-dilution MIC assay; type: cell-based
# Method: as §1
# Escherichia coli EC14 = assay: standard agar-dilution MIC assay; type: cell-based; settings: agar-dilution, read-out: MIC
# Method: as §1
# [4] = system: Pseudomonas aeruginosa X239; assay: standard agar-dilution MIC assay; type: cell-based; settings: agar-dilution
# Method: as §1
# [5] = system: Streptococcus pyogenes C203; assay: standard agar-dilution MIC assay; type: cell-based
# Method: as §1
# [6] = system: Streptococcus Group D X66; assay: standard agar-dilution MIC assay; type: cell-based
# Method: as §1
# [7] = system: Haemophilus influenzae C.L.; assay: standard agar-dilution MIC assay; type: cell-based
# Method: as §1
# [8] = system: Staphylococcus epidermidis 222; assay: standard agar-dilution MIC assay; type: cell-based
# Method: as §1
# [9] = system: Staphylococcus epidermidis EPI1; assay: standard agar-dilution MIC assay; type: cell-based
# Method: as §1
# [10] = system: Staphylococcus aureus X1.1; assay: standard agar-dilution MIC assay; type: cell-based
# Method: as §1
# [11] = system: Haemophilus influenzae 76; assay: standard agar-dilution MIC assay; type: cell-based
# Method: as §1
# [12] = system: Staphylococcus aureus V41; assay: standard agar-dilution MIC assay; type: cell-based
# Method: as §1
# [13] = system: Streptococcus pyogenes C203; assay: protection of mice experimentally infected with S. pyogenes C203; type: in vivo; settings: mice, mg/kg × 2, doses given 1 and 4 hours postinfection, read-out: ED50
# Outline: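 Activity is given as ED50, the mg/kg dose (×2) protecting half of the mice infected with S. pyogenes C203. Compound was dosed 1 and 4 h after infection.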
# [14] = system: Streptococcus pneumoniae Park I; assay: microbe, parasite or virus in culture; type: cell-based
# Method: as §1
# [15] = system: Staphylococcus aureus S13E; assay: microbe, parasite or virus in culture; type: cell-based
# Method: as §1
# [16] = system: Mycoplasma gallisepticum 15E; assay: broth-dilution microtiter MIC test; type: cell-based
# Method: as §1
# [17] = system: Pasteurella hemolytica 22C; assay: broth-dilution microtiter MIC test; type: cell-based
# Method: as §1
# Mycoplasma hyorhinis 29E = assay: broth-dilution microtiter MIC test; type: cell-based
# Method: as §1
# [18] = system: Mycoplasma hyopneumoniae S5972; assay: broth-dilution microtiter MIC test; type: cell-based; settings: broth-dilution microtiter
# Method: as §1
# [19] = system: Mycoplasma gallisepticum 36H; assay: broth-dilution microtiter MIC test; type: cell-based; settings: broth-dilution microtiter
# Method: as §1
# [20] = system: Mycoplasma gallisepticum 29C; assay: broth-dilution microtiter MIC test; type: cell-based
# Method: as §1
# [21] = system: Pasteurella multocida 22A; assay: broth-dilution microtiter MIC test; type: cell-based
# Method: as §1
# [22] = system: Pasteurella multocida 17E; assay: broth-dilution microtiter MIC test; type: cell-based
# Method: as §1
# Mycoplasma synoviae 40A = assay: broth-dilution microtiter MIC test; type: cell-based
# Method: as §1
# [23] = system: Pasteurella multocida 40G; assay: broth-dilution microtiter MIC test; type: cell-based
# Method: as §1
# [24] = system: Bordetella bronchiseptica; assay: broth-dilution microtiter MIC test; type: cell-based; settings: broth-dilution microtiter
# Method: as §1
# Streptococcus sp. 19F = assay: broth-dilution microtiter MIC test; type: cell-based
# Method: as §1
# [25] = system: Pasteurella hemolytica 23C; assay: broth-dilution microtiter MIC test; type: cell-based
# Method: as §1
# [26] = system: Pasteurella hemolytica 41D; assay: broth-dilution microtiter MIC test; type: cell-based
# Method: as §1
# [27] = system: Staphylococcus aureus 19C; assay: broth-dilution microtiter MIC test; type: cell-based
# Method: as §1
# [28] = system: Pasteurella multocida 68C; assay: broth-dilution microtiter MIC test; type: cell-based
# Method: as §1
# [29] = system: Pasteurella multocida 60A; assay: broth-dilution microtiter MIC test; type: cell-based
# Method: as §1
# [30] = system: Streptococcus Group D 2041; assay: standard agar-dilution MIC assay; type: cell-based; settings: GROUPD2041; agar-dilution; read-out: MIC
# Method: as §1
# [31] = Klebsiella pneumoniae, X68, read-out: MIC
# [32] = Pseudomonas aeruginosa, X239, read-out: MIC
# [33] = Staphylococcus epidermidis, 222
# [34] = Staphylococcus epidermidis, EPI1
smiles,measurement,setting,value
"CCC1OC(=O)CC(O)C(C)C(OC2OC(C)C(OC3CC(C)(O)C(O)C(C)O3)C(N(C)C)C2O)C(CC=O)CC(C)C(=O)C=CC(C)=CC1COC1OC(C)C2OC(=O)OC2C1OC (centres unmarked) [Compound 49, Macrocin-3'"",4'""-Carbonate Derivative]",MIC,[1]; [31],> 128 µg/mL
same,MIC,"[2]; GROUPD9960, read-out: MIC",1 µg/mL
same,MIC,"[3]; Staphylococcus aureus, X400",1 µg/mL
same,MIC,Escherichia coli EC14,> 128 µg/mL
same,MIC,[4]; [32],> 128 µg/mL
same,MIC,"[5]; Streptococcus pyogenes, C203, agar-dilution, read-out: MIC",0.12 µg/mL
same,MIC,[6]; read-out: MIC,1 µg/mL
same,MIC,[7]; Haemophilus influenzae,32 µg/mL
same,MIC,[8]; [33],0.25 µg/mL
same,MIC,[9]; [34],1 µg/mL
same,MIC,"[10]; Staphylococcus aureus, X1.1",0.5 µg/mL
same,MIC,"[11]; Haemophilus influenzae, 76",16 µg/mL
same,MIC,"[12]; Staphylococcus aureus, V41",0.5 µg/mL
same,ED50,"[13]; C203, Oral",85.6 mg/kg
same,ED50,"[13]; C203, sc, Subcutaneous",1 mg/kg
same,MIC,"[14]; Streptococcus pneumoniae, agar-dilution, read-out: MIC",0.12 µg/mL
same,MIC,"[15]; Staphylococcus aureus, S13E",0.5 µg/mL
same,MIC,"[16]; Mycoplasmoides gallisepticum, 15E",25 µg/mL
same,MIC,"[17]; Pasteurella, 22C",50 µg/mL
same,MIC,"Mycoplasma hyorhinis 29E; Mycoplasma, 29E",0.78 µg/mL
same,MIC,"[18]; Mesomycoplasma hyopneumoniae, S5972, read-out: MIC",0.097 µg/mL
same,MIC,"[19]; Mycoplasmoides gallisepticum, 36H, read-out: MIC",> 50 µg/mL
same,MIC,"[20]; Mycoplasmoides gallisepticum, 29C",0.195 µg/mL
same,MIC,"[21]; Pasteurella multocida, 22A",25 µg/mL
same,MIC,"[22]; Pasteurella multocida, 17E",12.5 µg/mL
same,MIC,"Mycoplasma synoviae 40A; Mycoplasmopsis synoviae, 40A",0.195 µg/mL
same,MIC,"[23]; Pasteurella multocida, 40G",25 µg/mL
same,MIC,"[24]; Bordetella bronchiseptica, read-out: MIC",> 50 µg/mL
same,MIC,"Streptococcus sp. 19F; Streptococcus, SP.19F",0.39 µg/mL
same,MIC,"[25]; Pasteurella, 23C",25 µg/mL
same,MIC,"[26]; Pasteurella, 41D",50 µg/mL
same,MIC,"[27]; Staphylococcus aureus, 19C",0.78 µg/mL
same,MIC,"[28]; Pasteurella multocida, 68C",6.25 µg/mL
same,MIC,"[29]; Pasteurella multocida, 60A",25 µg/mL
"CCC1OC(=O)CC(O)C(C)C(OC2OC(C)C(O)C(N(C)C)C2O)C(CCOc2ccccc2)CC(C)C(=O)C=CC(C)=CC1COC1OC(C)C(OC(C)=O)C(OC(C)=O)C1OC (centres unmarked) [Compound 41, 3"",4""-Di-O-acetyl-20-DH-20-O-phenyl-lactenocin]",MIC,[1]; [31],> 128 µg/mL
same,MIC,"[3]; Staphylococcus aureus, X400",16 µg/mL
same,MIC,Escherichia coli EC14,> 128 µg/mL
same,MIC,[4]; [32],> 128 µg/mL
same,MIC,"[5]; Streptococcus pyogenes, C203",16 µg/mL
same,MIC,[30],128 µg/mL
same,MIC,[6]; read-out: MIC,64 µg/mL
same,MIC,"[7]; Haemophilus influenzae, agar-dilution, Ampicillin-sensitive strain, read-out: MIC",> 128 µg/mL
same,MIC,[8]; [33],8 µg/mL
same,MIC,[9]; [34],16 µg/mL
same,MIC,"[10]; Staphylococcus aureus, X1.1",16 µg/mL
same,MIC,"[11]; Haemophilus influenzae, 76, agar-dilution, Ampicillin-resistant strain, read-out: MIC",> 128 µg/mL
same,MIC,"[12]; Staphylococcus aureus, V41",16 µg/mL
same,MIC,[14]; Streptococcus pneumoniae,16 µg/mL
same,MIC,"[15]; Staphylococcus aureus, S13E",16 µg/mL
"CC[C@H]1OC(=O)C[C@@H](O)[C@H](C)[C@@H](O[C@@H]2O[C@H](C)[C@@H](O)[C@H](N(C)C)[C@H]2O)[C@@H](CC=O)C[C@@H](C)C(=O)/C=C/C(C)=C/[C@@H]1CO[C@@H]1O[C@H](C)[C@@H](OC(=O)COc2ccccc2)[C@@H](O)[C@H]1OC [Compound 34, 4""-O-Phenoxyacetyl-lactenocin]",MIC,[1],"-- (Not active at 128 mcg/mL, the highest level tested)"
same,MIC,[2],1 µg/mL
same,MIC,"[3]; agar-dilution, Methicillin-resistant strain",1 µg/mL
same,MIC,[4],"-- (Not active at 128 mcg/mL, the highest level tested)"
same,MIC,[5]; agar-dilution,0.12 µg/mL
same,MIC,[6],1 µg/mL
same,MIC,"[7]; agar-dilution, Ampicillin-sensitive strain",4 µg/mL
same,MIC,[8]; agar-dilution,0.5 µg/mL
same,MIC,[9]; agar-dilution,1 µg/mL
same,MIC,[10]; agar-dilution,1 µg/mL
same,MIC,"[11]; agar-dilution, Ampicillin-resistant strain",4 µg/mL
same,MIC,"[12]; agar-dilution, Penicillin-resistant strain",1 µg/mL
same,MIC,[14]; agar-dilution,0.12 µg/mL
same,MIC,[15]; agar-dilution,1 µg/mL
same,MIC,[16]; broth-dilution microtiter,25 µg/mL
same,MIC,[17]; broth-dilution microtiter,25 µg/mL
same,MIC,Mycoplasma hyorhinis 29E; broth-dilution microtiter,6.25 µg/mL
same,MIC,[18],0.097 µg/mL
same,MIC,[19],12.5 µg/mL
same,MIC,[20]; broth-dilution microtiter,≤ 0.048 µg/mL
same,MIC,[21]; broth-dilution microtiter,12.5 µg/mL
same,MIC,"[22]; broth-dilution microtiter, Bovine isolate",6.25 µg/mL
same,MIC,Mycoplasma synoviae 40A; broth-dilution microtiter,0.097 µg/mL
same,MIC,[23]; broth-dilution microtiter,12.5 µg/mL
same,MIC,[24],50 µg/mL
same,MIC,Streptococcus sp. 19F; broth-dilution microtiter,1.56 µg/mL
same,MIC,[25]; broth-dilution microtiter,25 µg/mL
same,MIC,[26]; broth-dilution microtiter,25 µg/mL
same,MIC,[27]; broth-dilution microtiter,0.78 µg/mL
same,MIC,[28]; broth-dilution microtiter,12.5 µg/mL
same,MIC,"[29]; broth-dilution microtiter, Avian isolate",12.5 µg/mL
